According to patent publication US8288428B2, “Compounds as cannabinoid receptor ligands” (Abbott Laboratories, priority 2009, dated 2012):
Read-outs that look alike come from different tables or passages of the source.

Assays:
[1] = target: T1, human CB2 receptors (Homo sapiens, UniProt P34972); assay: human CB2 radioligand binding assay
T1 construct: expressed in transfected cells; membrane preparation
Procedure: (§1) (i) In Vitro Methods—CB2 and CB1 Radioligand Binding Assays:
(§2) The CB1 and CB2 radioligand binding assays described herein are utilized to ascertain the selectivity of compounds of the present application for binding to CB2 relative to CB1 receptors.
(§3) HEK293 cells stably expressing human CB2 receptors were grown until a confluent monolayer was formed. Briefly, the cells were harvested and homogenized in TE buffer (50 mM Tris-HCl, 1 mM MgCl2, and 1 mM EDTA) using a polytron for 2×10 second bursts in the presence of protease inhibitors, followed by centrifugation at 45,000×g for 20 minutes. The final membrane pellet was re-homogenized in storage buffer (50 mM Tris-HCl, 1 mM MgCl2, and 1 mM EDTA and 10% sucrose) and frozen at −78° C. until used. Saturation binding reactions were initiated by the addition of membrane preparation (protein concentration of 5 μg/well for human CB2) into wells of a deep well plate containing [^3H]CP-55,940 (120 Ci/mmol, a nonselective CB agonist commercially available from Tocris) in assay buffer (50 mM Tris, 2.5 mM EDTA, 5 mM MgCl2, and 0.5 mg/mL fatty acid free BSA, pH 7.4). After 90 min incubation at 30° C., binding reaction was terminated by the addition of 300 μL/well of cold assay buffer followed by rapid vacuum filtration through a UniFilter-96 GF/C filter plates (pre-soaked in 1 mg/mL BSA for 2 hours). The bound activity was counted in a TopCount using Microscint-20. Saturation experiments were conducted with twelve concentrations of [^3H]CP-55,940 ranging from 0.01 to 8 nM. Competition experiments were conducted with 0.5 nM [^3H]CP-55,940 and five concentrations (0.01 nM to 10 μM) of displacing ligands. The addition of 10 μM unlabeled CP-55,940 (Tocris, Ellisville, Mo.) was used to assess nonspecific binding.

[2] = target: T2, rat CB2 receptors (Rattus norvegicus, UniProt Q9QZN9); assay: rat CB2 radioligand binding assay
T2 construct: expressed in transfected cells; membrane preparation
T2 sequence (Q9QZN9 1-360): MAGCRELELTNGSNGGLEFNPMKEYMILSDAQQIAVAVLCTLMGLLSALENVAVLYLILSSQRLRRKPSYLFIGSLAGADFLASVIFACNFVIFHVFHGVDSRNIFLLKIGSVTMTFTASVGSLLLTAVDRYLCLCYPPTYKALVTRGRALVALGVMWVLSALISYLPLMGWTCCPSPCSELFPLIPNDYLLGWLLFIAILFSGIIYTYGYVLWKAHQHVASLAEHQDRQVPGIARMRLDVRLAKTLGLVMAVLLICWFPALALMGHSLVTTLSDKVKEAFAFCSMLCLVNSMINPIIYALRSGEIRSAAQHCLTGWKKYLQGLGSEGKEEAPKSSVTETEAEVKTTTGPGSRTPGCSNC
Procedure: as §1, §2
as §3, with “expressing rat” for “expressing human”, “of 20” for “of 5”, “for rat” for “for human”, “After 45” for “After 90”, “concentrations of displacing ligands selected from the range of 0.01” for “concentrations (0.01”, “10 μM.” for “10 μM) of displacing ligands.”

[3] = competition with 0.5 nM [3H]CP-55,940, HEK293 membranes expressing human CB2, read-out: human CB2 binding (Ki)
[4] = competition with 0.5 nM [3H]CP-55,940, HEK293 membranes expressing rat CB2, read-out: rat CB2 binding (Ki)

T1 sequence (P34972 whole entry): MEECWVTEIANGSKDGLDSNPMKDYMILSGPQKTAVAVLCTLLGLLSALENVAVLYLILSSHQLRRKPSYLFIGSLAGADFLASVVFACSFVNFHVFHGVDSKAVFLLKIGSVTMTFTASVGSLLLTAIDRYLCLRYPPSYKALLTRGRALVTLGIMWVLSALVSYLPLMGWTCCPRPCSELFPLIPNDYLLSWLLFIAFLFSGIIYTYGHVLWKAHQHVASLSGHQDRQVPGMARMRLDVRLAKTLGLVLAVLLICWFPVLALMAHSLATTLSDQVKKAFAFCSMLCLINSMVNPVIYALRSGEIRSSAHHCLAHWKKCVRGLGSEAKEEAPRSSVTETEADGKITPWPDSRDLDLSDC

Structure (SMILES)	Ki [1, 3] [nM]	Ki [2, 4] [nM]	Ki [1] [nM]	Ki [2] [nM]
CCCCn1/c(=N/C(=O)c2cc(C(F)(F)F)ccc2CCC(C)(C)O)cc(C(C)(C)C)n1C [Example 1, N-[(3E)-2-butyl-5-tert-butyl-1-methyl-1,2-dihydro-3H-pyrazol-3-ylidene]-2-(3-hydroxy-3-methylbutyl)-5-(trifluoromethyl)benzamide]	133	102		
CCCCn1nc(C(C)(C)C)s/c1=N\C(=O)c1cc(C(F)(F)F)ccc1CN1CC(C)(O)C1 [Example 17, N-[(2Z)-3-butyl-5-tert-butyl-1,3,4-thiadiazol-2(3H)-ylidene]-2-[(3-hydroxy-3-methylazetidin-1-yl)methyl]-5-(trifluoromethyl)benzamide]			5.9	1.45
CCCCn1/c(=N/C(=O)c2cc(C(F)(F)F)ccc2CN2CC[C@@H](O)C2)cc(C(C)(C)C)n1C [Example 13, N-[(3E)-2-butyl-5-tert-butyl-1-methyl-1,2-dihydro-3H-pyrazol-3-ylidene]-2-{[(3R)-3-hydroxypyrrolidin-1-yl]methyl}-5-(trifluoromethyl)benzamide]		453		
CCCCn1/c(=N/C(=O)c2cc(C(F)(F)F)ccc2CC(=O)OC(C)(C)C)cc(C(C)(C)C)n1C [Example 23, tert-butyl[2-({[(3E)-2-butyl-5-tert-butyl-1-methyl-1,2-dihydro-3H-pyrazol-3-ylidene]amino}carbonyl)-4-(trifluoromethyl)phenyl]acetate]	269			80.2
Cn1c(C(C)(C)C)c/c(=N\C(=O)c2cc(C(F)(F)F)ccc2CCC(C)(C)O)n1CC1CC1 [Example 4, N-[(3E)-5-tert-butyl-2-(cyclopropylmethyl)-1-methyl-1,2-dihydro-3H-pyrazol-3-ylidene]-2-(3-hydroxy-3-methylbutyl)-5-(trifluoromethyl)benzamide]			151	121
Cn1c(C(C)(C)C)c/c(=N\C(=O)c2cc(C(F)(F)F)ccc2CN2CC(O)C2)n1CC1CC1 [Example 9, N-[(3E)-5-tert-butyl-2-(cyclopropylmethyl)-1-methyl-1,2-dihydro-3H-pyrazol-3-ylidene]-2-[(3-hydroxyazetidin-1-yl)methyl]-5-(trifluoromethyl)benzamide]			30.1	24.8
CCCn1/c(=N/C(=O)c2cc(C(F)(F)F)ccc2/C=C/C(C)(C)O)cc(C(C)(C)C)n1C [Example 5, N-[(3E)-5-tert-butyl-1-methyl-2-propyl-1,2-dihydro-3H-pyrazol-3-ylidene]-2-[(1E)-3-hydroxy-3-methylbut-1-enyl]-5-(trifluoromethyl)benzamide]			277	89.6
CCCCn1nc(C(C)(C)C)s/c1=N\C(=O)c1cc(C(F)(F)F)ccc1CN1CC(O)C1 [Example 16, N-[(2Z)-3-butyl-5-tert-butyl-1,3,4-thiadiazol-2(3H)-ylidene]-2-[(3-hydroxyazetidin-1-yl)methyl]-5-(trifluoromethyl)benzamide]			1.63	0.8
CCCCn1/c(=N/C(=O)c2cc(C(F)(F)F)ccc2COCC(C)(C)O)cc(C(C)(C)C)n1C [Example 25, N-[(3E)-2-butyl-5-tert-butyl-1-methyl-1,2-dihydro-3H-pyrazol-3-ylidene]-2-[(2-hydroxy-2-methylpropoxy)methyl]-5-(trifluoromethyl)benzamide]			25	17.8
CCCCn1nc(C(C)(C)C)s/c1=N\C(=O)c1cc(C(F)(F)F)ccc1CN1CC[C@@H](O)C1 [Example 19, N-[(2Z)-3-butyl-5-tert-butyl-1,3,4-thiadiazol-2(3H)-ylidene]-2-{[(3R)-3-hydroxypyrrolidin-1-yl]methyl}-5-(trifluoromethyl)benzamide]			15.3	3.85
Cn1c(C(C)(C)C)c/c(=N\C(=O)c2cc(C(F)(F)F)ccc2CCC(C)(C)O)n1CC1CCC1 [Example 7, N-[(3E)-5-tert-butyl-2-(cyclobutylmethyl)-1-methyl-1,2-dihydro-3H-pyrazol-3-ylidene]-2-(3-hydroxy-3-methylbutyl)-5-(trifluoromethyl)benzamide]			20.8	17.2
CCCCn1/c(=N/C(=O)c2cc(C(F)(F)F)ccc2CCC(=O)OCC)cc(C(C)(C)C)n1C [Example 11, ethyl 3-[2-({[(3E)-2-butyl-5-tert-butyl-1-methyl-1,2-dihydro-3H-pyrazol-3-ylidene]amino}carbonyl)-4-(trifluoromethyl)phenyl]propanoate]			53.3	32.5
Cn1c(C(C)(C)C)c/c(=N\C(=O)c2cc(C(F)(F)F)ccc2/C=C/C(C)(C)O)n1CC1CC1 [Example 3, N-[(3E)-5-tert-butyl-2-(cyclopropylmethyl)-1-methyl-1,2-dihydro-3H-pyrazol-3-ylidene]-2-[(1E)-3-hydroxy-3-methylbut-1-enyl]-5-(trifluoromethyl)benzamide]			41.7	37.2
CCCCn1nc(C(C)(C)C)s/c1=N\C(=O)c1cc(C(F)(F)F)ccc1CN1CC[C@H](O)C1 [Example 18, N-[(2Z)-3-butyl-5-tert-butyl-1,3,4-thiadiazol-2(3H)-ylidene]-2-{[(3S)-3-hydroxypyrrolidin-1-yl]methyl}-5-(trifluoromethyl)benzamide]			14.9	1.59
CCCCn1nc(C(C)(C)C)s/c1=N\C(=O)c1cc(C(F)(F)F)ccc1CN1CC(C(=O)OC)C1 [Example 21, methyl 1-[2-({[(2Z)-3-butyl-5-tert-butyl-1,3,4-thiadiazol-2(3H)-ylidene]amino}carbonyl)-4-(trifluoromethyl)benzyl]azetidine-3-carboxylate]			3.93	1.79
Cn1c(C(C)(C)C)c/c(=N\C(=O)c2cc(C(F)(F)F)ccc2CN2CC(C)(O)C2)n1CC1CC1 [Example 10, N-[(3E)-5-tert-butyl-2-(cyclopropylmethyl)-1-methyl-1,2-dihydro-3H-pyrazol-3-ylidene]-2-[(3-hydroxy-3-methylazetidin-1-yl)methyl]-5-(trifluoromethyl)benzamide]			186	108
CCCCn1/c(=N/C(=O)c2cc(C(F)(F)F)ccc2CN2CC(C)(O)C2)cc(C(C)(C)C)n1C [Example 12, N-[(3E)-2-butyl-5-tert-butyl-1-methyl-1,2-dihydro-3H-pyrazol-3-ylidene]-2-[(3-hydroxy-3-methylazetidin-1-yl)methyl]-5-(trifluoromethyl)benzamide]	142	177		
Cn1c(C(C)(C)C)c/c(=N\C(=O)c2cc(C(F)(F)F)ccc2/C=C/C(C)(C)O)n1CC1CCC1 [Example 6, N-[(3E)-5-tert-butyl-2-(cyclobutylmethyl)-1-methyl-1,2-dihydro-3H-pyrazol-3-ylidene]-2-[(1E)-3-hydroxy-3-methylbut-1-enyl]-5-(trifluoromethyl)benzamide]			10.9	3.29
COCCCn1/c(=N/C(=O)c2cc(C(F)(F)F)ccc2CCC(C)(C)O)cc(C(C)(C)C)n1C [Example 15, N-[(3E)-5-tert-butyl-2-(3-methoxypropyl)-1-methyl-1,2-dihydro-3H-pyrazol-3-ylidene]-2-(3-hydroxy-3-methylbutyl)-5-(trifluoromethyl)benzamide]		220		
